# In the NIST ThermoML archive (doi:10.1021/je034227w):
# ± gives the expanded uncertainty stated by the source.
# Conditions: Liquid; for mass density: 298.15 K, 101.33 kPa
mass density,Normal boiling temperature,SMILES
785.1 ± 5 kg/m3,78.31 ± 0.03 °C,CCO [ethanol]
786.5 ± 5 kg/m3,64.52 ± 0.03 °C,CO [methanol]
